US11739069B2, “Modulators of resistant androgen receptor” (priority 2012, dated 2023)
Changes are numbered by the printed parent chain. “Also recorded” adds a separate entry of the source.

Columns and labels:
AR F876L [1] = biological target: T1, AR F876L (Homo sapiens, UniProt P10275, DEL79-80/DUP473-473/F877L); test: AR signaling and PARP cleavage in cells expressing AR F876L (FIG. 27); assay type: cell-based
T1 construct: expressed in transfected cells
T1 sequence (P10275 with tags, fused parts or gaps DEL79-80/DUP473-473/F877L): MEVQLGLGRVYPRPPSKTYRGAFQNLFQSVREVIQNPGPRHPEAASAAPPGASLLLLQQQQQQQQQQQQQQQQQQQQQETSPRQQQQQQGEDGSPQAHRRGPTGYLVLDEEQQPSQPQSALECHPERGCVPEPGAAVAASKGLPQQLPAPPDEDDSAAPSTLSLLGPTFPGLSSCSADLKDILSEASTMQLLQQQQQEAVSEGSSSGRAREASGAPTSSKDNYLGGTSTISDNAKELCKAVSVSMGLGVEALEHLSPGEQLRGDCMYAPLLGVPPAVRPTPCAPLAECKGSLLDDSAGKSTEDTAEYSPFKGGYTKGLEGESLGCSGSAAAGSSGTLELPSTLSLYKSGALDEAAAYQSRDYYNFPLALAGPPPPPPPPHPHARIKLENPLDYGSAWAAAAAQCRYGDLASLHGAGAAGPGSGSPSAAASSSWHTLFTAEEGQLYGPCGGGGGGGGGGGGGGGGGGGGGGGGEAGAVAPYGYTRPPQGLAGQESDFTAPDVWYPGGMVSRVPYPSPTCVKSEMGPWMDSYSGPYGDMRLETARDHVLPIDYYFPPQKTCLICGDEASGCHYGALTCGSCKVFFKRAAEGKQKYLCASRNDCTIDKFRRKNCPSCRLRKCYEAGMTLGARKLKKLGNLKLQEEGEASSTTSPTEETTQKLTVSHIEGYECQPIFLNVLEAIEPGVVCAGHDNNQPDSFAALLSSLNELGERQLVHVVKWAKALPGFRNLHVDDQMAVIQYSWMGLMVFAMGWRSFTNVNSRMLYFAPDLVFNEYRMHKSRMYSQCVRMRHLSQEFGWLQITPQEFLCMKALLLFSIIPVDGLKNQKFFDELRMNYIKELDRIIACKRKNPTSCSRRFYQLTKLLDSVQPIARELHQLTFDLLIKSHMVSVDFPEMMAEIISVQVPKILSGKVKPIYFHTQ

AR = biological target: T2, AR (Homo sapiens, UniProt P10275, DEL79-80/DUP473-473); test: AR luciferase reporter assay, competition with DHT (FIG. 25); assay type: cell-based
T2 construct: expressed in transfected cells; host or cells: CV1 cells
T2 sequence (P10275 with tags, fused parts or gaps DEL79-80/DUP473-473): T1 sequence (P10275 with tags, fused parts or gaps DEL79-80/DUP473-473/F877L) with L876F
Description: (§1) Compounds of the present invention were assayed in an in vitro AR luciferase reporter assay reporter assay, which can be used to determine the effect of compounds on AR transcriptional activity. CV1 cells were engineered to express an AR-regulated luciferase reporter, such that luciferase expression indicates AR transcriptional activity. A representative procedure for this assay follows.
(§2) CV1 cells (10^6 cells/10 cm plate) were cotransfected with 50 ng of SV40 Renilla Luciferase, 5 ug of ARE(4X)-Luciferase, and […] of one pWZL-AR expression construct using Lipofectamine 2000 (Invitrogen). Transfection media was removed 4-6 hours later and replaced with phenol red free DME-HG containing 10% charcoal stripped serum. The following day each plate was split into 24- or 48-well plates, in 10% CSS media, containing the indicated drugs in triplicate. Twenty-four to forty-eight hours later, luciferase activity was assayed using Dual-Luciferase Reporter Assay System (Promega) on a 96-well luminometer (Turner Biosystems). In some embodiments, a provided compound is considered to be a modulator of a tested AR if it results in similar effects on induced expression of luciferase in the luciferase reporter assay as compared with a reference androgen or anti-androgen.

AR WT [2] = test: AR signaling and PARP cleavage in cells expressing AR WT (FIG. 27); assay type: cell-based
[3] = test system: CWR22PC cells expressing wild type androgen receptor; test: In vitro cell viability assay (CellTiterGLO), CWR22PC cells expressing wild-type AR (FIG. 18); assay type: cell-based; conditions: 10 uM, days 1, 4, 7
Description: (§3) Compounds of the present invention were also assayed in an in vitro cell viability assay in CWR22PC cancer cells. A representative procedure follows. CWR22PC cells ectopically expressing wild-type AR or AR F876L, cultured in full-serum containing media, were treated with vehicle (DMSO) or 10 uM of enzalutamide or compound I-1. CellTiterGLO assay was performed on days 1, 4, and 7 to determine cell viability. Results of a cell viability assay in CWR22PC cells are depicted in FIG. 18. On the y-axis RLU means relative light units. More light […] means more viable cells. In some embodiments, a provided compound is considered to be a modulator of a tested AR if it results in similar effects on cell viability as compared with a reference androgen or anti-androgen.

[4] = test system: CWR22PC cells expressing mutant F876L androgen receptor; test: In vitro cell viability assay (CellTiterGLO), CWR22PC cells expressing AR F876L (FIG. 18); assay type: cell-based; conditions: 10 uM, days 1, 4, 7
Description: as §3

[5] = test system: VCaP cells expressing wild type androgen receptor; test: In vitro cell viability assay, VCaP cells expressing wild type AR (FIG. 17); assay type: cell-based
AR F876L [6] = biological target: T1, AR F876L; test: AR luciferase reporter assay, AR F876L versus AR WT (FIG. 26); assay type: cell-based
Description: as §1, §2

[7] = test system: VCaP cells expressing mutant F876L androgen receptor; test: In vitro cell viability assay, VCaP cells expressing mutant F876L AR (FIG. 17); assay type: cell-based
AR WT [8] = conditions: LNCaP cells ectopically expressing AR WT; compared with AR F876L cells
Description: The cells were propagated in RPMI media supplemented with 10% CSS (charcoal-stripped, dextran-treated fetal bovine serum). Cells were trypsinized, washed in PBS, and triplicate cell samples were mixed with 20,000 cpm 18F-FDHT and increasing amounts of cold competitor (0.1 nM to 10 uM). The solutions were shaken on an orbital shaker at ambient temperature, and after 1 hour the cells were isolated and washed with ice-cold Tris-buffered saline using a Brandel cell harvester (Gaithersburg, Md.). All the isolated cell samples were counted using a scintillation counter, with appropriate standards of total activity and blank controls, and the specific uptake of ^18F-FDHT determined.

mutant AR T877A [9] = biological target: T3, mutant AR T877A (Homo sapiens, UniProt P10275, DEL79-80/DUP473-473/T878A); conditions: Ozers et al., Biochemistry (2007) 46, 683; cited from earlier work
T3 sequence (P10275 with tags, fused parts or gaps DEL79-80/DUP473-473/T878A): T1 sequence (P10275 with tags, fused parts or gaps DEL79-80/DUP473-473/F877L) with L876F, T877A

mutant AR T877A [10] = biological target: T3, mutant AR T877A; conditions: cited from earlier work

## CNC(=O)c1ccc(N2C(=S)N(c3ccc(C#N)c(C(F)(F)F)c3)C(=O)[C@@]23CCCC(C)(C)C3)cc1F (stereo in doubt) [Compound I-1, 4-(3-(4-cyano-3-(trifluoromethyl)phenyl)-7,7-dimethyl-4-oxo-2-thioxo-1,3-diazaspiro[4.5]decan-1-yl)-2-fluoro-N-methylbenzamide]
AR F876L [1]
  induction of PARP cleavage: induce PARP cleavage
  inhibition of AR signaling: inhibit AR signaling
AR
  competition with dihydrotestosterone (DHT) for AR binding and induction of AR-regulated luciferase: effectively competes with dihydrotestosterone (DHT)
AR WT [2]
  induction of PARP cleavage: induce PARP cleavage
  inhibition of AR signaling: inhibit AR signaling
[3]
  ability to kill or inhibit the growth of cells: kill or inhibit the growth of CWR22PC cells
[4]
  ability to kill or inhibit the growth of cells: kill or inhibit the growth of CWR22PC cells
[5]
  ability to kill or inhibit the growth of cells: kill or inhibit the growth of VCaP cells
AR F876L [6]
  potency as agonist for AR F876L compared with AR WT: more potent agonist for AR F876L than AR WT
[7]
  ability to kill or inhibit the growth of cells: kill or inhibit the growth of VCaP cells

## C[C@]12CCC(=O)C[C@@H]1CC[C@@H]1[C@@H]2CC[C@]2(C)[C@@H](O)CC[C@@H]12 [DHT, dihydrotestosterone]
AR WT [8]
  IC50 for displacement of 18F-FDHT: comparable IC50

## CC(C)(O)C(=O)Nc1ccc([N+](=O)[O-])c(C(F)(F)F)c1 [hydroxyflutamide]
Mutant AR T877A [9]
  binding affinity to mutant AR T877A compared with AR WT: higher affinity
Mutant AR T877A [10]
  agonist activity on mutant AR: act as AR agonists; also recorded: confers agonism
